For 19 compounds, IC50 results are on record in patent publication US9034921B2, “Diphenylmethane derivatives as SGLT2 inhibitors” (GREEN CROSS CORPORATION, priority 2011, dated 2015).

Structures can show the parent of a compound that is named as a salt.

Sequence of human SGLT2 (P31639 whole entry): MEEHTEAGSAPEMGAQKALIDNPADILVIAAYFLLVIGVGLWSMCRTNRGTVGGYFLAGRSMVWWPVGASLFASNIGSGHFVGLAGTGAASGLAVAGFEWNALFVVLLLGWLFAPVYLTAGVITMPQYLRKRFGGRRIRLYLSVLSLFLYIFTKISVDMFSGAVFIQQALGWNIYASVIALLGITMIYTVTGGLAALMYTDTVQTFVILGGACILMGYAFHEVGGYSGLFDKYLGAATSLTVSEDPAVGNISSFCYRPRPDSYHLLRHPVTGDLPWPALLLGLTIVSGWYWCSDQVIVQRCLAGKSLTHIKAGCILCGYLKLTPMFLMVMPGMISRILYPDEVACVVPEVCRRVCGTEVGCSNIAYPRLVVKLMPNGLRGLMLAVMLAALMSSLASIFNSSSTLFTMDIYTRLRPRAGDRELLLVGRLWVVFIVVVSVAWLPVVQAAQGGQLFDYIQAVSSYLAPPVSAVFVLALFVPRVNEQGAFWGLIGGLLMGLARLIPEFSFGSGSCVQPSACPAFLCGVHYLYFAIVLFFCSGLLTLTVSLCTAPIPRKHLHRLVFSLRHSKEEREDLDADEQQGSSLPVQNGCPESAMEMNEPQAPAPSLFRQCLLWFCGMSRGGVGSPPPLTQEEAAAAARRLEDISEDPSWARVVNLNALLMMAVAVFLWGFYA

This test deals with human SGLT2 (Homo sapiens (Human), UniProt P31639). Description: Inhibitory effects on human SGLT2 activities (14C-AMG uptake, sodium-dependent glucose transport assay). To be noted: CHO cells stably expressing hSGLT2, 37° C., 2 h, single determinations. It is filed as cell-based. The gist of the method:
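CHO cells stably expressing hSGLT2 were preincubated 10 min at 37 °C in choline (Na+-free) buffer, then exposed 2 h at 37 °C to compound in Na+ uptake buffer with 8 μM 14C-AMG and 1 mM unlabeled AMG. Radioactivity was scintillation counted; IC50 came from nonlinear regression.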
The compound `COc1ccc(Cc2cc([C@@H]3O[C@H](CO)[C@@H](O)[C@H](O)[C@H]3O)c3c(c2F)CCC3)cc1` [Example E006, (2S,3R,4R,5S,6R)-2-(7-Fluoro-6-(4-methoxybenzyl)-2,3-dihydro-1H-inden-4-yl)-6-(hydroxymethyl)tetrahydro-2H-pyran-3,4,5-triol] had an IC50 of 2.03 nM.
To `COc1cc(Cl)c(Cc2ccc3c(c2)OCCO3)cc1[C@@H]1O[C@H](OC)[C@@H](O)[C@H](O)[C@H]1O` [Example E096, (2S,3R,4R,5S,6S)-2-(4-Chloro-5-((2,3-dihydrobenzo[b][1,4]dioxin-6-yl)methyl)-2-methoxyphenyl)-6-methoxy-tetrahydro-2H-pyran-3,4,5-triol] belongs 18.5 nM; to `Cc1ccc(Cc2cc([C@@H]3O[C@H](CO)[C@@H](O)[C@H](O)[C@H]3O)c3c(c2Cl)CCC3)cc1` [Example E139, (2S,3R,4R,5S,6R)-2-(7-Chloro-6-(4-methylbenzyl)-2,3-dihydro-1H-inden-4-yl)-6-(hydroxymethyl)tetrahydro-2H-pyran-3,4,5-triol], 0.808 nM.
Compound `CCOc1ccc(Cc2cc([C@@H]3O[C@H](CO)[C@@H](O)[C@H](O)[C@H]3O)c3c(c2Br)CCC3)cc1` [Example E003, (2S,3R,4R,5S,6R)-2-(7-Bromo-6-(4-ethoxybenzyl)-2,3-dihydro-1H-inden-4-yl)-6-(hydroxymethyl)tetrahydro-2H-pyran-3,4,5-triol] gave an IC50 of 0.738 nM. This IC50 and that of the compound before are within 1.5-fold of each other.
To `CC1(C)COc2cc(Cc3cc([C@@H]4O[C@H](CO)[C@@H](O)[C@H](O)[C@H]4O)ccc3Cl)ccc2O1` [Example E064, (2S,3R,4R,5S,6R)-2-(4-Chloro-3-((2,2-dimethyl-2,3-dihydrobenzo[b][1,4]dioxin-6-yl)methyl)phenyl)-6-(hydroxymethyl)-tetrahydro-2H-pyran-3,4,5-triol] belongs 5.78 nM; to `C=Cc1ccc(Cc2cc([C@@H]3O[C@H](CO)[C@@H](O)[C@H](O)[C@H]3O)c3c(c2Cl)OC(C)C3)cc1` (stereo partly drawn) [Example E137, (2S,3R,4R,5S,6R)-2-(7-Chloro-2-methyl-6-(4-vinylbenzyl)-2,3-dihydrobenzofuran-4-yl)-6-(hydroxymethyl)tetrahydro-2H-pyran-3,4,5-triol], 1 nM.
Compound `CCCc1ccc(Cc2cc([C@@H]3O[C@H](CO)[C@@H](O)[C@H](O)[C@H]3O)c3c(c2Cl)CC(C)O3)cc1` (stereo partly drawn) [Example E134, (2S,3R,4R,5S,6R)-2-(4-Chloro-2-methyl-5-(4-propylbenzyl)-2,3-dihydrobenzofuran-7-yl)-6-(hydroxymethyl)tetrahydro-2H-pyran-3,4,5-triol] came in with an IC50 of 0.885 nM.
The value for `OC[C@H]1O[C@@H](c2ccc(Cl)c(Cc3ccc4c(c3)OCCCO4)c2)[C@H](O)[C@@H](O)[C@@H]1O` [Example E029, (2S,3R,4R,5S,6R)-2-(4-Chloro-3-((3,4-dihydro-2H-benzo[b][1,4]dioxepin-7-yl)methyl)phenyl)-6-(hydroxymethyl)tetrahydro-2H-pyran-3,4,5-triol] was 4.38 nM; that for `OC[C@H]1O[C@@H](c2cc(Cc3ccc(C4CC4)cc3)c(Cl)c3c2CCC3)[C@H](O)[C@@H](O)[C@@H]1O` [Example E118, (2S,3R,4R,5S,6R)-2-(7-Chloro-6-(4-cyclopropylbenzyl)-2,3-dihydro-1H-inden-4-yl)-6-(hydroxymethyl)tetrahydro-2H-pyran-3,4,5-triol] was 0.678 nM.
The value for `OC[C@H]1O[C@@H](c2cc(Cc3ccc(C4CC4)cc3)c(Cl)c3ccoc23)[C@H](O)[C@@H](O)[C@@H]1O` [Example E173, (2S,3R,4R,5S,6R)-2-(4-Chloro-5-(4-cyclopropylbenzyl)benzofuran-7-yl)-6-(hydroxymethyl)tetrahydro-2H-pyran-3,4,5-triol] was 18.1 nM; that for `CCOc1ccc(Cc2cc([C@@H]3O[C@H](CO)[C@@H](O)[C@H](O)[C@H]3O)c3c(c2C)OCC3)cc1` [Example E129, (2S,3R,4R,5S,6R)-2-(6-(4-Ethoxybenzyl)-7-methyl-2,3-dihydrobenzofuran-4-yl)-6-(hydroxymethyl)tetrahydro-2H-pyran-3,4,5-triol] was 1.28 nM.
To `OC[C@H]1O[C@@H](c2cc(Cc3ccc(SC4CC4)cc3)c(Cl)c3c2CCO3)[C@H](O)[C@@H](O)[C@@H]1O` [Example E206, (2S,3R,4R,5S,6R)-2-(7-Chloro-6-(4-(cyclopropylthio)benzyl)-2,3-dihydrobenzofuran-4-yl)-6-(hydroxymethyl)tetrahydro-2H-pyran-3,4,5-triol] belongs 1.88 nM.
Compound `Cc1ccc([C@@H]2O[C@H](CO)[C@@H](O)[C@H](O)[C@H]2O)cc1Cc1ccc2c(c1)OCCCO2` [Example E030, (2S,3R,4R,5S,6R)-2-(3-((3,4-Dihydro-2H-benzo[b][1,4]dioxepin-7-yl)methyl)-4-methylphenyl)-6-(hydroxymethyl)tetrahydro-2H-pyran-3,4,5-triol] yielded an IC50 of 9.62 nM.
The value for `CNCc1ccc(Cc2cc([C@@H]3O[C@H](CO)[C@@H](O)[C@H](O)[C@H]3O)c3c(c2Cl)OCC3)cc1` [Example E183, (2S,3R,4R,5S,6R)-2-(7-Chloro-6-(4-((methylamino)methyl)benzyl)-2,3-dihydrobenzofuran-4-yl)-6-(hydroxymethyl)tetrahydro-2H-pyran-3,4,5-triol trifluoro acetic acid salt] was 122 nM; that for `CCOc1ccc(Cc2cc([C@@H]3O[C@H](CO)[C@@H](O)[C@H](O)[C@H]3O)c3c(c2Cl)N(C)CCO3)cc1` [Example E213, (2S,3R,4R,5S,6R)-2-(5-Chloro-6-(4-ethoxybenzyl)-4-methyl-3,4-dihydro-2H-benzo[b][1,4]oxazin-8-yl)-6-(hydroxymethyl)tetrahydro-2H-pyran-3,4,5-triol] was 6.12 nM; that for `COc1ccc(Cc2cc([C@@H]3O[C@H](CO)[C@@H](O)[C@H](O)[C@H]3O)c3c(c2Cl)CC(C)S3)cc1` (stereo partly drawn) [Example E142, (2S,3R,4R,5S,6R)-2-(4-Chloro-5-(4-methoxybenzyl)-2-methyl-2,3-dihydrobenzo[b]thiophen-7-yl)-6-(hydroxymethyl)tetrahydro-2H-pyran-3,4,5-triol] was 1.09 nM.
The value for `COc1ccc(Cc2cc([C@@H]3O[C@H](CO)[C@@H](O)[C@H](O)[C@H]3O)c3c(c2Cl)OCCC3)cc1` [Example E156, (2S,3R,4R,5S,6R)-2-(8-Chloro-7-(4-methoxybenzyl)chroman-5-yl)-6-(hydroxymethyl)tetrahydro-2H-pyran-3,4,5-triol] was 2.09 nM.
To `OC[C@H]1O[C@@H](c2ccc(Cl)c(Cc3ccc4c(c3)CCS4)c2)[C@H](O)[C@@H](O)[C@@H]1O` [Example E032, (2S,3R,4R,5S,6R)-2-(4-Chloro-3-((2,3-dihydrobenzo[b]thiophen-5-yl)methyl)phenyl)-6-(hydroxymethyl)tetrahydro-2H-pyran-3,4,5-triol] belongs 2.16 nM.
Turning to `COc1ccc(Cc2cc([C@@H]3O[C@H](CO)[C@@H](O)[C@H](O)[C@H]3O)c3c(c2Cl)CCO3)cc1` [Example E021, (2S,3R,4R,5S,6R)-2-(4-Chloro-5-(4-methoxybenzyl)-2,3-dihydrobenzofuran-7-yl)-6-(hydroxymethyl)tetrahydro-2H-pyran-3,4,5-triol], the IC50 is 1.72 nM.

For orientation: IC50 means the concentration needed to halve the response being measured. Low values mean higher potency, high ones lower potency.
